Results as given in patent publication US8012963B2, “3,4-dihydro-2H-benzo[1,4]oxazine and thiazine derivatives as CETP inhibitors” (Janssen Pharmaceutica N.V., priority 2006, dated 2011).
Values joined by “and” are separate entries in the source; they are usually repeats but may differ in a detail not shown here. Equal entries are not always repeated.

Key:
[1] = test system: rabbits; conditions: 30 mg/kg; cited from earlier work
[2] = test system: rabbits; conditions: rabbits with severe hypercholesterolemia; cited from earlier work
[3] = clinical studies; cited from earlier work
[4] = molecular target: T1, CETP (Homo sapiens, UniProt P11597); test: CETP in vitro assay ([3H]CE-HDL transfer, Amersham kit TRKQ7005; modified protocol in human plasma); format: biochemical; conditions: multiple values = multiple measurements; for inhibition at 1 µM / % Inhibition @ 1 μM: 1 μM compound
T1 construct: from tissue; host or cells: human plasma from normal volunteers
T1 sequence (P11597 18-493): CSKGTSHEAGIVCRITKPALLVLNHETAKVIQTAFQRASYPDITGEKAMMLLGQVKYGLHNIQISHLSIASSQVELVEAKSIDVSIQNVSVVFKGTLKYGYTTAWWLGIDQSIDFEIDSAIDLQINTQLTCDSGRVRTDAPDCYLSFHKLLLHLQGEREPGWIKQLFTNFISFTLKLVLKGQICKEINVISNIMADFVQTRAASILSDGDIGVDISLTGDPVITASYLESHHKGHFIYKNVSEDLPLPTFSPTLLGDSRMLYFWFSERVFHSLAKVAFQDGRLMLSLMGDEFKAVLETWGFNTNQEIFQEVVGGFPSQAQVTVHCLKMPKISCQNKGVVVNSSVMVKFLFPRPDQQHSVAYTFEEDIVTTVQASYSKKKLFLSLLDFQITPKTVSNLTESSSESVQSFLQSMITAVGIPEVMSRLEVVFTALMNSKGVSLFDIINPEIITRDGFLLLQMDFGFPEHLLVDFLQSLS
Procedure, shortened: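 Normal-volunteer human plasma was incubated ≥4 hr at 37 °C with approx. 25 μg/ml [3H]CE-HDL and compound in DMSO, with a 4 °C blank for non-specific transfer. HDL was separated by Dextralip/MgCl2 precipitation and centrifugation, then supernatant radioactivity counted. IC50 came from % control versus concentration.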

[5] = test system: cholesterol-fed hamsters; test: CETP in vivo assay: lipid parameters in cholesterol-fed hamsters; parameters: species or system hamster; conditions: plasma, mean ± SEM
Procedure: To determine the in vivo efficacy of a test compound, hamsters are first fed a moderately high cholesterol diet (Research Diets, D5012801) for two weeks before commencing treatment. The animals are orally gavaged with the vehicle (10% solutol, 5% ethanol, 85% D5W) and test compound for 5 days with the last dose being administered 2 hrs before sacrifice. Plasma is obtained and lipid parameters (HDL-C, LDL-C, Total Cholesterol, Triglycerides) are measured.

SMILES: CCC(CC)CC1(C(=O)Nc2ccccc2SC(=O)C(C)C)CCCCC1 [JTT-705]
- CETP activity [1]: inhibited CETP activity
- change of HDL-C [1]: +90%
- change of lesion size [1]: −70%
- change of non-HDL-C cholesterol [1]: −50%
- plasma triglycerides [2]: significant elevations of plasma triglycerides
- prevention of lesion development [2]: not efficacious in preventing lesion development
- HDL-C [3]: raise HDL-C
- LDL-C [3]: modestly lower LDL-C
- triglyceride levels [3]: not alter triglyceride levels

SMILES: CS(=O)(=O)NCCN1c2cccc(-c3cccc(OC(F)(F)F)c3)c2OCC1c1cccc(OC(F)(F)C(F)F)c1 (stereo not shown) [Compound 43, N-{2-[3-[3-(1,1,2,2-Tetrafluoro-ethoxy)-phenyl]-8-(3-trifluoromethoxy-phenyl)-2,3-dihydro-benzo[1,4]oxazin-4-yl]-ethyl}-methanesulfonamide]
- inhibition at 1 µM [4]: 0%

SMILES: O=C(CN1c2cccc(-c3cccc(OC(F)(F)F)c3)c2OCC1c1ccc2c(c1)OC(F)(F)O2)C(F)(F)F (stereo not shown) [Compound 19, 3-[3-(2,2-Difluoro-benzo[1,3]dioxol-5-yl)-8-(3-trifluoromethoxy-phenyl)-2,3-dihydro-benzo[1,4]oxazin-4-yl]-1,1,1-trifluoro-propan-2-one]
- inhibition at 1 µM [4]: 0%

SMILES: OC(CN1c2cccc(-c3cccc(OC(F)(F)F)c3)c2OCC1c1ccco1)C(F)(F)F (stereo not shown) [Compound 90, 1,1,1-Trifluoro-3-[3-furan-2-yl-8-(3-trifluoromethoxy-phenyl)-2,3-dihydro-benzo[1,4]oxazin-4-yl]-propan-2-ol]
- % Inhibition @ 1 μM [4]: 17%

SMILES: O[C@@H](CN1c2cccc(-c3cccc(OC(F)(F)F)c3)c2OC[C@@H]1c1cccc(OC(F)(F)C(F)F)c1)C(F)(F)F [Compound 3, 4H-1,4-Benzoxazine-4-ethanol, 2,3-dihydro-3-[3-(1,1,2,2-tetrafluoroethoxy)phenyl]-8-[3-(trifluoromethoxy)phenyl]-α-(trifluoromethyl)-, (3S,αS)—]
- inhibition at 1 µM [4]: 91%
- IC50 [4]: 26 nM
- HDL ([5]; 3 mg/kg oral gavage 5 days): 136 ± 6 mg/dL
- HDL-C/LDL Ratio ([5]; 3 mg/kg oral gavage 5 days): 3.7 ± 0.2
- LDL ([5]; 3 mg/kg oral gavage 5 days): 36 ± 3 mg/dL
- Total Cholesterol ([5]; 3 mg/kg oral gavage 5 days): 207 ± 7 mg/dL
- Triglycerides ([5]; 3 mg/kg oral gavage 5 days): 278 ± 21 mg/dL
- HDL ([5]; 10 mg/kg oral gavage 5 days): 158 ± 10 mg/dL
- HDL-C/LDL Ratio ([5]; 10 mg/kg oral gavage 5 days): 5.2 ± 0.4
- LDL ([5]; 10 mg/kg oral gavage 5 days): 30 ± 2 mg/dL
- Total Cholesterol ([5]; 10 mg/kg oral gavage 5 days): 217 ± 12 mg/dL
- Triglycerides ([5]; 10 mg/kg oral gavage 5 days): 282 ± 16 mg/dL
- HDL ([5]; 30 mg/kg oral gavage 5 days): 167 ± 5 mg/dL
- HDL-C/LDL Ratio ([5]; 30 mg/kg oral gavage 5 days): 6.2 ± 0.3
- LDL ([5]; 30 mg/kg oral gavage 5 days): 27 ± 2 mg/dL
- Total Cholesterol ([5]; 30 mg/kg oral gavage 5 days): 226 ± 5 mg/dL
- Triglycerides ([5]; 30 mg/kg oral gavage 5 days): 300 ± 36 mg/dL

SMILES: CCc1ccc(C2COc3c(-c4cccc(OC(F)(F)F)c4)cccc3N2CC(O)C(F)(F)F)s1 (stereo not shown) [Compound 58, 3-[3-(5-Ethyl-thiophen-2-yl)-8-(3-trifluoromethoxy-phenyl)-2,3-dihydro-benzo[1,4]oxazin-4-yl]-1,1,1-trifluoro-propan-2-ol]
- % Inhibition @ 1 μM ([4]; 1 µM): 60% and 96%
- IC50 [4]: 502 nM

SMILES: OC(CF)CN1c2cccc(-c3cccc(OC(F)(F)F)c3)c2OCC1c1cccc(OC(F)(F)C(F)F)c1 (stereo not shown) [Compound 69, 1-Fluoro-3-[3-[3-(1,1,2,2-tetrafluoro-ethoxy)-phenyl]-8-(3-trifluoromethoxy-phenyl)-2,3-dihydro-benzo[1,4]oxazin-4-yl]-propan-2-ol]
- % Inhibition @ 1 μM ([4]; 1 µM): 50%

SMILES: CN(CCN1c2cccc(-c3cccc(OC(F)(F)F)c3)c2OCC1c1cccc(OC(F)(F)C(F)F)c1)S(C)(=O)=O (stereo not shown) [Compound 44, N-Methyl-N-{2-[3-[3-(1,1,2,2-tetrafluoro-ethoxy)-phenyl]-8-(3-trifluoromethoxy-phenyl)-2,3-dihydro-benzo[1,4]oxazin-4-yl]-ethyl}-methanesulfonamide]
- inhibition at 1 µM [4]: 0%

SMILES: CC(C)C(O)CN1c2cccc(-c3cccc(OC(F)(F)F)c3)c2OCC1c1cccc(OC(F)(F)C(F)F)c1 (stereo not shown) [Compound 84, 3-Methyl-1-[3-[3-(1,1,2,2-tetrafluoro-ethoxy)-phenyl]-8-(3-trifluoromethoxy-phenyl)-2,3-dihydro-benzo[1,4]oxazin-4-yl]-butan-2-ol]
- inhibition at 1 µM [4]: 84%
- % Inhibition @ 1 μM ([4]; 1 µM): 87%
- IC50 [4]: 100 nM and 158 nM

SMILES: C=CCC1COc2c(-c3cccc(OC(F)(F)F)c3)cccc2N1CC(O)C(F)(F)F (stereo not shown) [Compound 51, 3-[3-Allyl-8-(3-trifluoromethoxy-phenyl)-2,3-dihydro-benzo[1,4]oxazin-4-yl]-1,1,1-trifluoro-propan-2-ol]
- % Inhibition @ 1 μM ([4]; 1 µM): 0%

SMILES: O[C@@H](CN1c2cccc(-c3cccc(OC(F)(F)F)c3)c2SC[C@@H]1c1cccc(OC(F)(F)C(F)F)c1)C(F)(F)F [Compound 107]
- % Inhibition @ 1 μM ([4]; 1 µM): 59% and 87%
- IC50 [4]: 134 nM and 198 nM

SMILES: OC(CF)CN1c2cccc(-c3cccc(OC(F)(F)F)c3)c2OC[C@@H]1c1cccc(OC(F)(F)C(F)F)c1 (stereo in doubt) [Compound 74, 4H-1,4-Benzoxazine-4-ethanol, 2,3-dihydro-α-fluoromethyl-3-[3-(1,1,2,2-tetrafluoroethoxy)phenyl]-8-[3-(trifluoromethoxy)phenyl]-, (3S,αR)—]
- inhibition at 1 µM [4]: 77%
- IC50 [4]: 14 nM

SMILES: O[C@H](CN1c2cccc(-c3cc(F)cc(F)c3)c2OC[C@@H]1c1cccc(OC(F)(F)C(F)F)c1)C(F)(F)F [Compound 73, 4H-1,4-Benzoxazine-4-ethanol, 8-(3,5-difluorophenyl)-2,3-dihydro-3-[3-(1,1,2,2-tetrafluoroethoxy)phenyl]-α-(trifluoromethyl)-, (3S,αR)—]
- inhibition at 1 µM [4]: 76%
- IC50 [4]: 460 nM

SMILES: COCCN1c2cccc(-c3cccc(OC(F)(F)F)c3)c2OCC1c1cccc(OC(F)(F)C(F)F)c1 (stereo not shown) [Compound 24, 4-(2-Methoxy-ethyl)-3-[3-(1,1,2,2-tetrafluoro-ethoxy)-phenyl]-8-(3-trifluoromethoxy-phenyl)-3,4-dihydro-2H-benzo[1,4]oxazine]
- inhibition at 1 µM [4]: 25%

SMILES: CN1c2cccc(-c3cccc(OC(F)(F)F)c3)c2OCC1c1cccc(OC(F)(F)C(F)F)c1 (stereo not shown) [Compound 32, 4-Methyl-3-[3-(1,1,2,2-tetrafluoro-ethoxy)-phenyl]-8-(3-trifluoromethoxy-phenyl)-3,4-dihydro-2H-benzo[1,4]oxazine]
- inhibition at 1 µM [4]: 0%

SMILES: CC1(C)OC[C@H](CN2c3cccc(-c4cccc(OC(F)(F)F)c4)c3OC[C@@H]2c2cccc(OC(F)(F)C(F)F)c2)O1 [Compound 45, 2H-1,4-Benzoxazine, 4-[[(4S)-2,2-dimethyl-1,3-dioxolan-4-yl]methyl]-3,4-dihydro-3-[3-(1,1,2,2-tetrafluoroethoxy)phenyl]-8-[3-(trifluoromethoxy)phenyl]-, (3S)—]
- inhibition at 1 µM [4]: 25%

SMILES: OC(CN1c2cccc(-c3cccc(OC(F)(F)F)c3)c2OCC1c1cccc(OC(F)(F)F)c1)C(F)(F)F (stereo not shown) [Compound 8, 3-[3,8-Bis-(3-trifluoromethoxy-phenyl)-2,3-dihydro-benzo[1,4]oxazin-4-yl]-1,1,1-trifluoro-propan-2-ol]
- % Inhibition @ 1 μM ([4]; 1 µM): 21%

SMILES: OC(CN1c2cccc(-c3cccc(OC(F)(F)F)c3)c2OCC1c1cccc(OC(F)(F)C(F)F)c1)C(F)(F)F (single isomer, unassigned) [Compound 1, 1,1,1-Trifluoro-3-[3-[3-(1,1,2,2-tetrafluoro-ethoxy)-phenyl]-8-(3-trifluoromethoxy-phenyl)-2,3-dihydro-benzo[1,4]oxazin-4-yl]-propan-2-ol]
- % Inhibition @ 1 μM ([4]; 1 µM): 96%
- IC50 [4]: 52 nM and 38 nM
